Measurements taken from EP0342558A2, “2-amino-4,5-methyleneadipic acid compounds for treatment of CNS disorders” (priority 1988, dated 1989).
Marks after values point to notes of the source that are not given here.

Legend:
[1] = tested on: 15-day-old chick embryo retina; settings: agonist alone, 30 minutes, pilot experiments
Source text: This assay is adapted from procedures described in literature sources [Olney, J.W., Price, M.T., Fuller, T.A., Labruyere, J., Samson, L., Carpenter, M., Mahan, K., "The Anti-Excitotoxic Effects of Certain Anesthetics, Analgesics and Sedative-Hypnotics", Neuroscience Letters, 68, 29-34, (1986)]. By an approach similar to that earlier described [Reif-Lehrer, L., Bergenthal, J. and Hanninen, L., "Effects of Monosodium Glutamate on Chick Embryo Retina in Culture", Invest. Ophthalmol., 14, 114-124, (1975)], 15-day-old chick embryos were decapitated and their eyes removed and cut into quadrants after excising the cornea and removing the lens, vitreous and iris. The retinal quadrants were then gently separated from the pigment epithelium and incubated for 30 minutes at 37°C in a standard balanced salt solution (BSS) to which test compounds, either excitatory amino acid agonists or potential antagonists or both, were added in various concentrations. As described elsewhere [Olney, J.W., Price, M.T., Samson, L. and Labruyere, J., "The Role of Specific Ions in Glutamate Neurotoxicity". Neurosci. Lett.. […]

[2] = tested on: 15-day-old chick embryo retina; settings: 1 mM, incubated for 30 minutes in BSS, pilot studies; cited from earlier work
NMDA neurotoxicity = assay: In vitro chick retina assay, protection against NMDA; type: cell-based; settings: for Antagonist activity vs NMDA: concentration required to completely prevent toxicity of NMDA (200 µM), 30 minutes at 37°C; for % protection vs NMDA: NMDA 200 µM
Source text: (§1) This assay is adapted from procedures described in literature sources [Olney, J.W., Price, M.T., Fuller, T.A., Labruyere, J., Samson, L., Carpenter, M., Mahan, K., "The Anti-Excitotoxic Effects of Certain Anesthetics, Analgesics and Sedative-Hypnotics", Neuroscience Letters, 68, 29-34, (1986)]. By an approach similar to that earlier described [Reif-Lehrer, L., Bergenthal, J. and Hanninen, L., "Effects of Monosodium Glutamate on Chick Embryo Retina in Culture", Invest. Ophthalmol., 14, 114-124, (1975)], 15-day-old chick embryos were decapitated and their eyes removed and cut into quadrants after excising the cornea and removing the lens, vitreous and iris. The retinal quadrants were then gently separated from the pigment epithelium and incubated for 30 minutes at 37°C in a standard balanced salt solution (BSS) to which test compounds, either excitatory amino acid agonists or potential antagonists or both, were added in various concentrations. As described elsewhere [Olney, J.W., Price, M.T., Samson, L. and Labruyere, J., "The Role of Specific Ions in Glutamate Neurotoxicity". Neurosci. Lett.. […] After incubation for 30 minutes, the retinal quadrants were fixed by immersion in phosphate-buffered solution containing 1.5% glutaraldehyde and 1% paraformaldehyde, then additionally fixed in 1% osmium tetroxide and embedded in araldite, allowing sections to be cut for either light or electron microscopy [Olney, J.W., "Glutamate-Induced Retinal Degeneration in Neonatal Mice. Electron Microscopy of the Acutely Evolving Lesion", J. Neuropathol. Exp. Neurol., 28, 455-474, (1969)]. […] Neurosci. […] For purposes of the present study, NMDA and KA were the agonists employed and numerous potential antagonists were tested at various concentrations for their ability to prevent NMDA or KA neurotoxicity. […] Internal controls on each experiment consisted of at least 6 specimens being incubated with agonist alone (NMDA 200 µM or KA 25 µM). […]

Kainate = assay: Glutamate binding assay, [³H]kainate binding to synaptic plasma membranes; settings: 0.5 nM [³H]kainate, SPM, 0-4°C, 60 minutes
Description: (§2) The purpose of this assay is to determine the binding affinity of a compound of Formula I for the three glutamic acid receptor sub-types. (NMDA, QUIS, Kainate). It is expected that a compound interacting with one of these sub-type receptors will mimic or antagonize the effect of the endogenous ligand and thereby have a memory enhancing effect or have a neuroprotective and/or anti-epileptic effects. This procedure was carried out as follows:
(§3) Synaptic plasma membranes (SPM) were prepared as previously described [Monahan, J.B. and Michel, J., "Identification and Characterization of an N-methyl-D-aspartate-specific L-[³H]glutamate Recognition Site in Synaptic Plasma Membranes, J. Neurochem., 48, 1699-1708 (1987)]. The SPM were stored at a concentration of 10-15 mg/ml in 0.32M sucrose, 0.5 mM EDTA, 1mM MgSO₄, 5 mM Tris/SO₄, pH 7.4, under liquid nitrogen. The identity and purity of the subcellular fractions were confirmed by both electron microscopy and marker enzymes. Protein concentrations were determined by using a modification of the method of Lowry [Ohnishi, S.T. and Barr, J.K., "A Simplified Method of Quantitating Proteins Using the Biuret and Phenol Reagents", Anal. Biochem., 86, 193-197 (1978)]. The SPM were treated identically for the [³H]AMPA (QUIS), [³H]kainate and NMDA-specific L-[³H]glumatate binding assays. The SPM were thawed at room temperature, diluted twenty-fold with 50mM Tris/-acetate, pH 7.4, incubated at 37°C for 30 minutes, and centrifuged at 100,000 g for 15 minutes. The dilution, incubation, and centrifugation was repeated a total of three times. The basic procedure for the receptor subclass binding assays was similar. This general method involved adding the radioligand (12.5 nM L-[³H]glutamate; 0.5 nM [³H]kainate or 10nM L-[³H]AMPA) to the appropriate concentration of the test compound and initiating the assay by the addition of ice cold SPM (0.2-0.45 mg). The binding assays were performed in 1.5 ml centrifuge tubes with the total volume adjusted to 1.0 ml. Additions of test compounds were made in 50 mM Tris/acetate, pH 7.4 and incubations were carried out at 0-4°C. The incubation time for the NMDA and the AMPA binding assays was 10 minutes and for the kainate binding assay 60 minutes. The AMPA binding assay contained 100 mM KSCN. […] The supernatant was aspirated and the pelleted membranes dissolved in Beckman Ready-Protein scintillation cocktail and the samples counted on a Beckman LS 5800 or 3801 liquid scintillation counter with automatic corrections for quenching and counting efficiency. […] Radioligand binding to the SPM was analyzed using Scatchard and Hill transformations and the Ki values of the compounds determined using logit-log transformations. […]

QUIS = assay: Glutamate binding assay, [³H]AMPA (QUIS) binding to synaptic plasma membranes; settings: 10nM [³H]AMPA, 100 mM KSCN, SPM, 0-4°C, 10 minutes
Description: as §2, §3

KA neurotoxicity = assay: In vitro chick retina assay, protection against KA; type: cell-based; settings: concentration required to completely prevent toxicity of KA (25 µM); 30 minutes at 37°C
Source text: as §1

NMDA = assay: Glutamate binding assay, NMDA-specific L-[³H]glutamate binding to synaptic plasma membranes; settings: 12.5 nM L-[³H]glutamate, SPM, 0-4°C, 10 minutes
Description: as §2, §3

QA = assay: In vitro chick retina assay, protection against QA; type: cell-based; settings: 30 minutes at 37°C; QA concentration not given
[3] = tested on: rat brain synaptic membranes (SPM); assay: [³H]TCP modulation assay; type: binding
Description: The effect on [³H]TCP (1-[1-(2-thienyl)-cyclohexyl]piperidine) binding was measure in rat brain synaptic membranes (SPM) prepared as previously described (J.B. Monahan and J. Michel; J. Neurochem., 48, 1699-1708, (1987)). Prior to their use in the binding assay, frozen SPM were thawed, diluted twenty fold with 50 mM Tris/acetate, pH 7.4 containing 0.04% (v/v) Triton X-100, incubated for 30 min., at 37°C and centrifuged at 95,000 xspg for 15 min. The Triton X-100 treated SPM were washed with 5 mM Tris/HCl, pH 7.4 and centrifuged a total of six times. The compounds of the invention were incubated with SPM (0.2-0.4 mg protein) and 2 nM [³H]TCP in a total volume of 0.5 ml of 5 mM Tris/HCl buffer pH 7.4 at 25°C for 60 min. The samples were filtered through glass fiber filters (Schleicher & Schuell #32) which have been pretreated with 0.05% (v/v) polyethylenimine, washed with 2 ml of ice-cold 5 mM Tris/HCl buffer, and then counted on a Beckman LS 5800 liquid scintillation counter with automatic corrections for quenching and counting efficiency. Antagonist character was defined as the ability of the test compound to inhibit [³H]TCP binding in the presence of 1 µM L-glutamate, while agonist character is shown by stimulation of either basal [³H]TCP binding or the binding in the presence of 10 µM D-AP7, a specific competitive NMDA antagonist. Non specific binding was defined as the residual binding in the presence of 60 µM phencyclidine.

mungbean seedling growth = settings: cited from earlier work

| Compound | Antagonist activity vs NMDA (NMDA neurotoxicity) [µM] | Binding Ki KA (Kainate) [µM] | Ki (QUIS) [µM] | Antagonist activity vs KA (KA neurotoxicity) [µM] | Ki (NMDA) [µM] | Antagonist activity vs QA (QA) [µM] | also measured |
| --- | --- | --- | --- | --- | --- | --- | --- |
| CN[C@H](CC(=O)O)C(=O)O [NMDA, N-methyl-D-aspartate] | – | – | – | – | – | – | lowest concentrations required to consistently obtain fully developed retinal lesions [1]: 200 µM |
| N[C@@H](CCC(=O)O)C(=O)O [Glu, Glutamate] | – | – | – | – | – | – | retinal lesion [2]: a fully developed lesion occurs |
| N[C@@H](CC1CC1C(=O)O)C(=O)O (stereo partly drawn) [trans-L-2-amino-4,5-methyleneadipic acid, Trans-L-2-amino-4,5-methyleneadipic acid] | >500 | 37.0 | > 300 | >500 | 2.5 | >500 | – |
| C=C(C)[C@H]1CN[C@H](C(=O)O)[C@H]1CC(=O)O [KA, Kainate] | – | – | – | – | – | – | lowest concentrations required to consistently obtain fully developed retinal lesions [1]: 25 µM |
| N[C@H](CC1CC1C(=O)O)C(=O)O (stereo partly drawn) [cis-D-2-amino-4,5-methyleneadipic acid, Cis-D-2-amino-4,5-methyleneadipic acid] | > 75 | 13.0 | > 300 | >500 | 1.9 | >500 | % protection vs NMDA (NMDA neurotoxicity; compound at 10 µM): 10(0%)*; % protection vs NMDA (NMDA neurotoxicity; compound at 25 µM): 25(33%)*; % protection vs NMDA (NMDA neurotoxicity; compound at 50 µM): 50(66%)*; % protection vs NMDA (NMDA neurotoxicity; compound at >75 µM): 100%; maximal stimulation of [³H]TCP binding ([3]; compared with the full agonist glutamate): substantially less than that shown for the full agonist glutamate; [³H]TCP Bound ([3]; compound 100 µM, in presence of D-AP7 (10µM), control without compound 5016): 11453 DPM; [³H]TCP Bound ([3]; compound 100 µM, in presence of L-Glutamate (1µM), control without compound 15466): 12265 DPM; [³H]TCP Bound ([3]; compound 200 µM, in presence of D-AP7 (10µM), control without compound 5016): 11161 DPM; [³H]TCP Bound ([3]; compound 200 µM, in presence of L-Glutamate (1µM), control without compound 15466): 11880 DPM; [³H]TCP Bound ([3]; compound 400 µM, in presence of D-AP7 (10µM), control without compound 5016): 9345 DPM; [³H]TCP Bound ([3]; compound 400 µM, in presence of L-Glutamate (1µM), control without compound 15466): 9622 DPM; effect on quantity of [³H]TCP bound ([3]; in the presence of D-APH): agonist effect; effect on quantity of [³H]TCP specifically bound ([3]; in the presence of L-glutamic acid): antagonist effect |
| N[C@@H](CC1CC1C(=O)O)C(=O)O (stereo partly drawn) [cis-L-2-amino-4,5-methyleneadipic acid, Cis-L-2-amino-4,5-methyleneadipic acid] | >500 | 23.0 | > 300 | >500 | 14.2 | >500 | – |
| NC(C(=O)O)[C@@H]1C[C@@H]1C(=O)O (relative stereo) [cis-α-(carboxycyclopropyl)glycine] | – | – | – | – | – | – | inhibition of mungbean seedling growth (mungbean seedling growth): potent inhibitor |
| N[C@H](CC1CC1C(=O)O)C(=O)O (stereo partly drawn) [trans-D-2-amino-4,5-methyleneadipic acid, Trans-D-2-amino-4,5-methyleneadipic acid] | > 125 | 25.0 | > 300 | >500 | 2.2 | >500 | % protection vs NMDA (NMDA neurotoxicity; compound at 50 µM): 50(0%)*; % protection vs NMDA (NMDA neurotoxicity; compound at 75 µM): 75(66%)*; % protection vs NMDA (NMDA neurotoxicity; compound at >125 µM): 100% |
